# Measurements: patent US12692253B2, “Antimicrobial compounds and methods” (Curza Global, LLC, priority 2019, dated 2026)
# Legend:
# [1] = test system: E. coli S30 extract (bacterial protein synthesis); assay: E. coli S30 extract coupled transcription-translation luciferase assay (inhibition of bacterial protein synthesis); assay type: biochemical; conditions: % inhibition @ 1 μM, read-out: S30 IC50 (μM/% inhib.)
# In short: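 Coupled transcription-translation in E. coli S30 circular-DNA extract expressing luciferase from pBESTluc, with 8-point 2-fold compound dilutions; 1 hour at 37 °C, stopped at 4 °C. Luminescence read; % inhibition versus no-inhibitor wells, no-DNA wells as background.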
# S. aureus (Sa) = assay: Broth microdilution minimum inhibitory concentration (MIC), CLSI; assay type: cell-based; conditions: Staphylococcus aureus, growth medium with sodium bicarbonate, read-out: Sa + bicarb MIC
# In short: (§1)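 Bacteria grown at 35±2 °C to 0.5 McFarland turbidity were added at 5×10^4 CFU/well to triplicate two-fold compound series (8 dilutions). Media were cation-adjusted Mueller-Hinton broth alone or with sodium bicarbonate (6.25 or 25 mM final) or heat-inactivated human serum (0–50%), per modified CLSI method.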
# A. baumannn (Ab) = assay: as above; assay type: cell-based; conditions: A. baumannn; growth medium with sodium bicarbonate; read-out: Ab + bicarb MIC
# In short: as §1
# E. coli (Ec) = assay: as above; assay type: cell-based; conditions: Escherichia coli, growth medium with sodium bicarbonate, read-out: E. coli + bicarb MIC
# In short: as §1
# E. faecalis (Ef) = assay: as above; assay type: cell-based; conditions: Enterococcus faecalis, growth medium with sodium bicarbonate, read-out: Ef + bicarb MIC
# In short: as §1
# P. aeruginosa (Pa) = assay: as above; assay type: cell-based; conditions: Pseudomonas aeruginosa, growth medium with sodium bicarbonate, read-out: Pa MIC + bicarb
# In short: as §1
# [2] = target: Rabbit Reticulocyte Lysate (eukaryotic protein synthesis); assay: Rabbit reticulocyte lysate luciferase assay (inhibition of eukaryotic protein synthesis); assay type: biochemical; conditions: % inhibition @ 1 μM, read-out: Rabbit reticulocyte IC50 (μM/% inhib.)
# In short: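 In vitro translation of luciferase control RNA in nuclease-treated rabbit reticulocyte lysate with amino acid mixture, compounds in 2-fold serial dilution, 90 minutes at 30° C. Luminescence read after luciferase reagent; % inhibition relative to water no-inhibitor controls, with no-RNA background wells.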
SMILES,IC50 [1] [µM],MIC (S. aureus (Sa)) [µg/mL],MIC (A. baumannn (Ab)) [µg/mL],MIC (E. coli (Ec)) [µg/mL],MIC (E. faecalis (Ef)) [µg/mL],MIC (P. aeruginosa (Pa)) [µg/mL],IC50 [2] [µM]
CC(C)(N)C(=O)N1C[C@H]2CN(C(=O)Nc3ccn(-c4ccc(CN5C[C@@H]6[C@@H](N)[C@@H]6C5)cc4)c(=O)n3)C[C@H]2C1 [Compound 246],≥ 1,> 32,> 32,> 32,> 32,> 32,≥ 1
NC[C@@H]1[C@H]2CN(C(=O)Nc3ccn(-c4ccc(CN5C[C@@H]6[C@@H](N)[C@@H]6C5)cc4)c(=O)n3)C[C@@H]12 [Compound 247],≥ 1,> 32,> 32,> 32,> 32,> 32,≥ 1
NCC1CCN(C(=O)Nc2ccn(-c3ccc(CN4C[C@@H]5[C@@H](N)[C@@H]5C4)cc3)c(=O)n2)CC1 [Compound 248],≥ 1,> 32,> 32,> 32,> 32,> 32,≥ 1
N[C@@H]1[C@H]2CN(Cc3ccc(-n4ccc(NC(=O)N5C[C@@H]6[C@@H](N)[C@@H]6C5)nc4=O)cc3)C[C@@H]12 [Compound 249],≥ 1,> 32,> 32,8 to 32,> 32,> 32,≥ 1
NCCC1CCN(C(=O)Nc2ccn(-c3ccc(CN4C[C@@H]5[C@@H](N)[C@@H]5C4)cc3)c(=O)n2)CC1 [Compound 250],≥ 1,> 32,> 32,> 32,> 32,> 32,≥ 1
NC[C@@H]1CCN(C(=O)Nc2ccn(-c3ccc(CN4C[C@@H]5[C@@H](N)[C@@H]5C4)cc3)c(=O)n2)C1 [Compound 251],≥ 1,> 32,> 32,> 32,> 32,> 32,≥ 1
NCC1CC2(CCN(C(=O)Nc3ccn(-c4ccc(CN5C[C@@H]6[C@@H](N)[C@@H]6C5)cc4)c(=O)n3)CC2)C1 [Compound 252],0.5 to 1,< 8,> 32,< 8,> 32,> 32,≥ 1
NC[C@H]1CCN(C(=O)Nc2ccn(-c3ccc(CN4C[C@@H]5[C@@H](N)[C@@H]5C4)cc3)c(=O)n2)C1 [Compound 253],≥ 1,> 32,> 32,> 32,> 32,> 32,≥ 1
NCC1CN(C(=O)Nc2ccn(-c3ccc(CN4C[C@@H]5[C@@H](N)[C@@H]5C4)cc3)c(=O)n2)C1 [Compound 254],0.5 to 1,> 32,> 32,8 to 32,> 32,> 32,≥ 1
NCCC1CN(C(=O)Nc2ccn(-c3ccc(CN4C[C@@H]5[C@@H](N)[C@@H]5C4)cc3)c(=O)n2)C1 [Compound 255],0.5 to 1,> 32,> 32,8 to 32,> 32,> 32,≥ 1
